From patent US4440932A, “7β-Arylalkyl-7α-methyl-6-oxo or 6α-hydroxy-3-methoxy or 3-hydroxy-4,5α-epoxy-17-methyl or 17-cycloalkyl-methylmorphinans” (Miles Laboratories, Inc., priority 1982, dated 1984) come the findings set out here.

Where “and” joins values, the source holds several entries; their conditions need not be identical. Identical values can stand only once.

A word on the ED50: it is the midpoint of the dose-response relation.

The subject of the assay is mice. Briefly: acetic acid induced writhing test (analgesic effects in mice, subcutaneous). The assay is classed as in vivo, mice (male CD-1). The following applies: Mus musculus, sc, acetic acid i.p. 15 min post drug, writhes counted over 20 min, read-out: ED50 (dose required to reduce the number of writhes by 50%). As for the experimental part:
Analgesic effects of the test compounds were determined in mice by use of the acetic acid induced writhing test described by B. A. Whittle, Brit. J. Pharmacol., 22:246 (1964). In this test, at least 3 groups of 5 male CD-1 mice each were given subcutaneous doses of the test drug dissolved in distilled water. In all cases, 0.4 ml of a 0.5% v/v acetic acid in distilled water solution was administered intraperitoneally 15 min. post drug. The number of writhes in a 20 min. interval beginning 5 min. after the acetic acid injection were determined and compared with the number of writhes in a control group which had received only acetic acid.
Percent inhibition of writhing was calculated as: [formula]
The ED50 dose, i.e., the dose required to reduce the number of writhes by 50%, was determined graphically from a plot of % inhibition as a probit verus log dose. Confidence limits of 95% were calculated on the basis of those results falling in the range 16-84% inhibition. See Lichtfield, J. T. and Wilcoxon, F., J. Pharmacol. Exp. Ther., 96, 99-113 (1949).
For orientation: An intraperitoneal irritant provokes the stretching counted in writhing tests.

Turning to `COc1ccc2c3c1O[C@H]1[C@@H](O)[C@](C)(CCc4ccccc4)C[C@H]4[C@@H](C2)N(CC2CCC2)CC[C@@]341` [BBd], the ED50 was 1 µmol/kg and 0.51 mg/kg.

Turning to `C[C@@]1(CCCCc2ccccc2)C[C@H]2[C@H]3Cc4ccc(O)c5c4[C@@]2(CCN3CC2CCC2)[C@@H](O5)C1=O` [DBf], the ED50 is 0.17 µmol/kg and 0.08 mg/kg.

For the molecule `COc1ccc2c3c1O[C@H]1C(=O)[C@](C)(CCCCc4ccccc4)C[C@H]4[C@@H](C2)N(CC2CCC2)CC[C@]314` [CBf], the median effective dose (ED50) was 5.6 µmol/kg and 2.8 mg/kg.

As to `C[C@@]1(CCCCc2ccccc2)C[C@H]2[C@H]3Cc4ccc(O)c5c4[C@@]2(CCN3CC2CC2)[C@@H](O5)C1=O` [DPf], the ED50 is 0.11 µmol/kg and 0.07 mg/kg.

In the case of `COc1ccc2c3c1O[C@H]1C(=O)[C@](C)(CCCCc4ccccc4)C[C@H]4[C@@H](C2)N(CC2CC2)CC[C@]314` [CPf], the ED50 was 2 µmol/kg and 1.1 mg/kg.

On to `COc1ccc2c3c1O[C@H]1[C@@H](O)[C@](C)(CCCCc4ccccc4)C[C@H]4[C@@H](C2)N(CC2CCC2)CC[C@@]341` [BBf], for which the ED50 was 11.3 µmol/kg and 6.1 mg/kg.

In the case of `COc1ccc2c3c1O[C@H]1[C@@H](O)[C@](C)(CCCCc4ccccc4)C[C@H]4[C@@H](C2)N(CC2CC2)CC[C@@]341` [BPf], the 50% effective dose (ED50) is 0.5 µmol/kg and 0.26 mg/kg.

With `CN1CC[C@]23c4c5ccc(O)c4O[C@H]2C(=O)[C@](C)(CCCCc2ccccc2)C[C@H]3[C@H]1C5` [DMf, 7α,17-Dimethyl-4,5α-epoxy-3-hydroxy-7β-(4-phenylbutyl)morphinan-6-one], the ED50 was 0.01 µmol/kg and 0.0048 mg/kg.

Turning to `COc1ccc2c3c1O[C@H]1C(=O)[C@](C)(CCc4ccccc4)C[C@H]4[C@@H](C2)N(CC2CCC2)CC[C@]314` [CBd], the ED50 is 0.01 µmol/kg and 0.011 mg/kg.

Take `C[C@@]1(CCc2ccccc2)C[C@H]2[C@H]3Cc4ccc(O)c5c4[C@@]2(CCN3CC2CCC2)[C@@H](O5)C1=O` [DBd]: the ED50 was 0.04 µmol/kg and 0.021 mg/kg.

In the case of `COc1ccc2c3c1O[C@H]1C(=O)[C@](C)(CCCCc4ccccc4)C[C@H]4[C@@H](C2)N(C)CC[C@]314` [CMf, 7α,17-Dimethyl-4,5α-epoxy-3-methoxy-7β-(4-phenylbutyl)morphinan-6-one], the 50% effective dose (ED50) was 0.023 µmol/kg and 0.011 mg/kg.

Take `COc1ccc2c3c1O[C@H]1[C@@H](O)[C@](C)(CCCCc4ccccc4)C[C@H]4[C@@H](C2)N(C)CC[C@@]341` [BMf, 7α,17-Dimethyl-4,5α-epoxy-3-methoxy-7β-(4-phenylbutyl)morphinan-6α-ol]: the ED50 is 0.049 µmol/kg and 0.023 mg/kg.
